Laboratory results reported in patent publication US20110319484A1, “NEUROPROTECTIVE COMPOUNDS” (Parque Tecnologico de Ciencias de la Salud, priority 2009, published 2011).

Experiments:
zebrafish larvae = assay: Inhibition of TBH-induced apoptosis in the brain of the zebrafish embryo (Acridine Orange); format: in vivo, zebrafish (Danio rerio); details: zebrafish larvae 96 hpf, TBH 0.45 mM, compound 1 μg/ml, 24 h
Experimental: To that end, an assay was performed on zebrafish larvae (96 hours post-fertilization). The fertilized eggs were obtained by a natural birth of adult zebrafish (AB strain) in the inventors' laboratory, carried out according to what is described in The Zebrafish Book [Westerfield, M. (1995) The Zebrafish Book. A Guide for the Laboratory Use of Zebrafish (Danio rerio). 3rd ed., University of Oregon Press, Eugene]. The eggs were collected in the 1st hour after spawning, washed and deposited in a clean Petri dish with embryo water (medium) (4.9 mM NaCl, 0.17 mM KCl, 0.33 mM CaCl.2H2O, 0.33 .mM MgSO4.7H2O, pH 7.2) prepared following the guidelines described in the book Zebrafish. Practical approach [Nusslein-Volhard, C and Dahm, R (2002) Zebrafish. Practical approach. Oxford: Oxford University Press].
The inhibition caused by the NST0003, NST0004 and NST0005 compounds on cell death caused by the tert-butyl hydroperoxide (TBH) compound, which is a pro-oxidizing compound which induces specific neurotoxicity in zebrafish larvae by means of the mechanism of apoptosis, was analyzed.
The larvae (at 96 hours post-fertilization [hpf]) were seeded in 96-well plates (3 larvae/well), performing a triplicate (3 wells) for experimental condition, thus obtaining an intra-assay triplicate. The larvae were treated in a total volume of embryo medium of 100 μl per well for the following conditions: (i) control (embryo medium); (ii), TBH [0.45 mM], which corresponds with the maximum tolerated dose (MTD), which induces neurotoxicity in the larvae but not mortality; and (iii) TBH [0.45 mM] and NST0003, NST0004 and NST0005, all at the concentration of 1 μg/ml. […]
Thus, the control larvae and the treated larvae were immersed in 1 μg/ml of AO in embryo water at 28.5° C. for 60 minutes. […] AO is a fluorescent compound which can be readily measured and quantified with a fluorometer. Therefore, the larvae were anesthetized with tricaine (3-aminobenzoic acid ethyl ester) and homogenized for their subsequent reading in a fluorescence plate reader (excitation: 488 nm; emission: 530 nm). […]

hippocampus of mice = assay: Neuroprotection in the hippocampus of mice after kainate (histopathology); format: in vivo, mice (FVB/NHan); details: KA 25 mg/kg i.p., NST0005 50 mg/kg i.p. daily, 2 days before and 7 days after KA
Experimental: All the animals included during the experimental process were 12-week old males of the FVB/NHan strain. The experiments were carried out strictly following the Guidance on the Operation of Animals (Scientific Procedures, Act. 1986). The animals had their respective quarantine period and were treated with maximum precaution to minimize possible contaminations for inoculations and handling.
Sixteen animals were used in this assay and the treatments were all carried out by intraperitoneal (i.p.) route with a volume of 100 μl, according to the following regimens: • i) PBS+PBS+PBS regimen: 4 animals were initially treated with PBS with a daily dose for 2 days, on the second day the animals were inoculated with a new dose of PBS and for the next 7 days with a daily dose of PBS. • ii) PBS+KA+PBS regimen: 6 animals were initially treated with PBS with a daily dose for 2 days, on the second day the animals were inoculated with a dose of kainate at 25 mg/kg and for the next 7 days with a daily dose of PBS. • iii) NST0005+KA+NST0005 regimen: 6 animals were initially treated with NST0005 with a daily dose of 50 mg/kg for 2 days, on the second day the animals were inoculated with a dose of kainate at 25 mg/kg and for the next 7 days with a daily dose of NST0005 at 50 mg/kg.
Once the treatment time of 7 days ended, the animals were sacrificed and the brains were dissected. The brain samples were processed and included in paraffin. Fluoro-Jade B® (FJB) fluorescent stain was used in 5 μm thick sections to analyze the neurodegeneration of the hippocampus.
Based on the neuroprotection results shown in the previous section, the inventors decided to investigate if the neuroprotective effect of NST0005 in the hippocampus of mice against the administration of kainate (KA) was accompanied by the protection of another sign of neuronal damage such as neuritic dystrophy. To that end, the same experimental scheme was used as in section 6.1. Once the treatment period of 7 days ended, the animals were sacrificed and the brains were dissected. The brain samples were processed and included in paraffin. Bright field immunohistochemistry of the microtubule-associated protein 2 (MAP2) was used in 5 μm thick sections to analyze the neuritic dystrophy of the hippocampus.
Based on the neuroprotection results shown in the previous sections, the inventors decided to investigate if the neuroprotective effect of NST0005 in the hippocampus of mice against the administration of kainate (KA) was accompanied by the inhibition of neuronal death by apoptosis. To that end, the same experimental scheme was used as in section 6.1. Once the treatment period of 7 days ended, the animals were sacrificed and the brains were dissected. The brain samples were processed and included in paraffin. […]

SMILES	reduction of apoptosis induced by TBH (zebrafish larvae) [%]	neuritic dystrophy in the hippocampus (MAP2) (hippocampus of mice)	neurodegeneration in the hippocampus (Fluoro-Jade B) (hippocampus of mice)	neuronal death by apoptosis in the hippocampus (Acridine Orange) (hippocampus of mice)	neuronal death by necrosis in the hippocampus (hematoxylin and eosin) (hippocampus of mice)
CC(C)C(=O)O[C@H]1C[C@@H](C)C=C2C=C[C@H](C)[C@H](CC[C@@H]3C[C@@H](O)CC(=O)O3)[C@H]21 [NST0004]	45.3±18.9	–	–	–	–
CCC(=O)O[C@H]1C[C@@H](C)C=C2C=C[C@H](C)[C@H](CC[C@@H]3C[C@@H](O)CC(=O)O3)[C@H]21 [NST0003, (1S,3R,7S,8S,8aR)-1,2,3,7,8,8a-hexahydro-3,7-dimethyl-8-[2-[(2R,4R)-tetrahydro-4-hydroxy-6-oxo-2H-pyran-2-yl]ethyl-1-naphthalenyl propanoate]	50.7±17.1	–	–	–	–
C[C@H]1C=C2C=C[C@H](C)[C@H](CC[C@@H]3C[C@@H](O)CC(=O)O3)[C@H]2[C@@H](OC(=O)C(C)(C)C)C1 [NST0005]	34.3±17.3	significantly prevents the neuritic dystrophy	completely protected against the neurodegeneration	prevents neuronal damage, neurodegeneration and also neuronal death by apoptosis	substantially prevents neuronal death by necrosis
